According to patent publication US20070265270A1, “Cinnoline derivatives as phosphodiesterase 10 inhibitors” (priority 2006, published 2007):

biological target: T1, mPDE10A7 (Mus musculus, UniProt Q8CA95); assay: mPDE10A7 enzyme inhibition (IMAP fluorescence polarization); format: biochemical; settings: Table 3; fluorescein labeled cAMP or cGMP substrate
T1 sequence (Q8CA95 446-763 limits assumed): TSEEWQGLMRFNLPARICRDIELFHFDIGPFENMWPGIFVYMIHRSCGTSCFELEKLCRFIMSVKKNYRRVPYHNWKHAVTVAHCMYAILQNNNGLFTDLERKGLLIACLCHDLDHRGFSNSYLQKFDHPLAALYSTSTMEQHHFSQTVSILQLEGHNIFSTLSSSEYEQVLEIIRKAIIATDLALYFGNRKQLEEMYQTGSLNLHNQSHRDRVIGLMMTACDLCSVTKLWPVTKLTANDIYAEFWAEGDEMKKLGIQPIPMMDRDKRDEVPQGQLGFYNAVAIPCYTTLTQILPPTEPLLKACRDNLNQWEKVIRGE
Method: Enzyme Activity: To analyze the enzyme activity, 5 μL of serial diluted mPDE10A7 containing lysate were incubated with equal volumes of diluted (100-fold) fluorescein labeled cAMP or cGMP for 30 minutes in MDC HE 96-well assay plates at room temperature. Both the enzyme and the substrates were diluted in the following assay buffer: Tris/HCl (pH 8.0) 50 mM, MgCl2 5 mM, 2-mercaptoethanol 4 mM, BSA 0.33 mg/mL. After incubation, the reaction was stopped by adding 20 μL of diluted (400-fold) binding reagents and was incubated for an hour at room temperature. The plates were counted in an Analyst GT (Molecular Devices) for fluorescence polarization. An IMAP Assay kit (Molecular Device) was used to assess enzyme properties of mPDE10A7. Data were analyzed with SoftMax Pro.
Enzyme Inhibition: To check the inhibition profile, 10 μL of serial diluted compounds were incubated with 30 μl of diluted PDE enzymes in a 96-well polystyrene assay plate for 30 minutes at room temperature. After incubation, 5 μL of the compound-enzyme mixture were aliquoted into a MDC HE black plate, mixed with 5 μl of 100-fold diluted fluorescein labeled substrates (cAMP or cGMP), and incubated for 30 minutes at room temperature. The reaction was stopped by adding 20 μL of diluted binding reagents and counted in an Analyst GT for fluorescence polarization. The data were analyzed with SoftMax Pro.

Point of comparison: `COc1cc2nncc(N3CCCC(N(C)C(=O)c4ccccc4)C3)c2cc1OC` (stereo not shown) [Cpd 107], IC50 58.4 nM. Against it:
- COc1cc2nncc(N3CCC(c4ccccc4)C3)c2cc1OC (racemic) [Cpd 12, 6,7-dimethoxy-4-(3-phenylpyrrolidin-1-yl)cinnoline] — 4.5-fold higher, 261 nM
- COc1cc2nncc(N3CCCC(C(=O)N4CCCC4)C3)c2cc1OC (racemic) [Cpd 32, 6,7-Dimethoxy-4-[3-(pyrrolidin-1-ylcarbonyl)piperidin-1-yl]cinnoline] — 6.9-fold higher, 402 nM
- COc1cc2nncc(N3CCCC(Oc4ccccc4)C3)c2cc1OC (racemic) [Cpd 37] — 1.9-fold higher, 113 nM
- COc1cc2nncc(N3CCOC(c4ccc5c(c4)CCO5)C3)c2cc1OC (racemic) [Cpd 38] — 9-fold lower, 6.49 nM
- COc1cc2nncc(N3CCCC(C(=O)N4CCCCC4)C3)c2cc1OC (racemic) [Cpd 39] — 6.5-fold higher, 378 nM
- COc1cc2nncc(N3CC(c4ccc(Cl)cc4)OCC3=O)c2cc1OC (racemic) [Cpd 40] — 7.3-fold higher, 427 nM
- COc1cccc(C2CN(c3cnnc4cc(OC)c(OC)cc34)C(=O)CO2)c1 (racemic) [Cpd 52, 4-(6,7-dimethoxycinnolin-4-yl)-6-(3-methoxyphenyl)morpholin-3-one] — 5.3-fold higher, 310 nM
- COc1cc2nncc(N3CCCC(CN4CCCC4=O)C3)c2cc1OC (racemic) [Cpd 62, 1-{[1-(6,7-dimethoxycinnolin-4-yl)piperidin-3-yl]methyl}pyrrolidin-2-one] — 5.8-fold higher, 337 nM
- COc1cc2nncc(N3CCOC(c4ccc(OC(F)(F)F)cc4)C3)c2cc1OC (racemic) [Cpd 63] — 2-fold lower, 29.2 nM
- COc1ccc(C2CN(c3cnnc4cc(OC)c(OC)cc34)CC(=O)N2C)cc1 (racemic) [Cpd 65] — within 1.5-fold, 46.1 nM
- COc1cc2nncc(N3CCOC(c4ccc(O)cc4)C3)c2cc1OC (racemic) [Cpd 74] — 15-fold lower, 3.84 nM
- COc1ccc2cc(C3CN(c4cnnc5cc(OC)c(OC)cc45)CCN3)ccc2c1 (racemic) [Cpd 86] — 44-fold lower, 1.33 nM
- COc1cc2nncc(N3CCOC(c4ccc(C)cc4F)C3)c2cc1OC (racemic) [Cpd 88] — within 1.5-fold, 57.8 nM
- COc1cc2nncc(N3CCNC(c4cccs4)C3)c2cc1OC (racemic) [Cpd 93] — 7.4-fold lower, 7.84 nM
- COc1cc2nncc(N3CCNC(c4ccc(N(C)C)cc4)C3)c2cc1OC (racemic) [Cpd 94] — 36-fold lower, 1.6 nM
- COc1cc2nncc(N3CCOC(c4ccccc4C)C3)c2cc1OC (racemic) [Cpd 96] — 4.1-fold lower, 14.1 nM
- COc1ccc(CC2CCN(c3cnnc4cc(OC)c(OC)cc34)C2)cc1 (racemic) [Cpd 98] — 2.2-fold lower, 26.6 nM
- CC[C@@H]1CN(c2cnnc3cc(OC)c(OC)cc23)C[C@@H](c2ccc(OC)cc2)O1 (racemic) [Cpd 100] — 16-fold lower, 3.57 nM
- COc1cc2nncc(N3CCCC(NC(=O)c4ccccc4F)C3)c2cc1OC (racemic) [Cpd 102] — 1.7-fold lower, 35.1 nM
- COc1cc2nncc(N3CCNC(c4cccc5ccccc45)C3)c2cc1OC (racemic) [Cpd 103] — 4.9-fold lower, 12 nM
- COc1cc2nncc(N3CCCC(C4CCCCC4)C3)c2cc1OC (racemic) [Cpd 104] — 4.5-fold higher, 263 nM
- COc1cc2nncc(N3CCNC(c4cc(OCc5ccccc5)cc(OCc5ccccc5)c4)C3)c2cc1OC (racemic) [Cpd 118] — 2.7-fold higher, 160 nM
- COc1cc(OC)cc(C(=O)NC2CCCN(c3cnnc4cc(OC)c(OC)cc34)C2)c1 (racemic) [Cpd 121] — 3.6-fold lower, 16.3 nM
- COc1cc2nncc(-c3nc4ccccc4o3)c2cc1OC [Cpd 1, 4-(1,3-benzoxazol-2-yl)-6,7-dimethoxycinnoline hydroformate] — 3.7-fold higher, 218 nM
- COc1cc2nncc(-n3nc(C(=O)NC4CC4)c4ccccc43)c2cc1OC [Cpd 3, N-cyclopropyl-1-(6,7-dimethoxycinnolin-4-yl)-1H-indazole-3-carboxamide hydroformate] — 2.4-fold higher, 141 nM
- COc1cc2nncc(-c3ccc4c(c3)OCCN4C)c2cc1OC [Cpd 8, 7-(6,7-dimethoxycinnolin-4-yl)-4-methyl-3,4-dihydro-2H-1,4-benzoxazine] — 2.5-fold lower, 23 nM
- COCCOc1ccc2cnn(-c3cnnc4cc(OC)c(OC)cc34)c2c1 [Cpd 19, 6,7-Dimethoxy-4-[6-(2-methoxyethoxy)-1H-indazol-1-yl]cinnoline] — 2.4-fold higher, 140 nM
- COc1cc2nncc(-n3ncc4ccc(N5CCOCC5)cc43)c2cc1OC [Cpd 21, 6,7-dimethoxy-4-(6-morpholin-4-yl-1H-indazol-1-yl)cinnoline] — 9.5-fold higher, 554 nM
- CCN1CCN(c2cccc3c2cnn3-c2cnnc3cc(OC)c(OC)cc23)CC1 [Cpd 48] — 2-fold lower, 28.8 nM
- COc1cc2nncc(-n3ncc4c(N5CCN(CC6CC6)CC5)cccc43)c2cc1OC [Cpd 50, 4-{4-[4-(cyclopropylmethyl)piperazin-1-yl]-1H-indazol-1-yl}-6,7-dimethoxycinnoline] — within 1.5-fold, 63.1 nM
- COc1cc2nncc(N3CCCC(n4ccccc4=O)C3)c2cc1OC (stereo not shown) [Cpd 51] — 2.6-fold higher, 152 nM
- COc1cc2nncc(N3CCCC(c4nc(C)no4)C3)c2cc1OC (stereo not shown) [Cpd 56] — 3.3-fold higher, 190 nM
- COc1ccc(C2(O)CCCN(c3cnnc4cc(OC)c(OC)cc34)C2)cc1 (stereo not shown) [Cpd 64] — 3-fold lower, 19.2 nM
- COc1cc2nncc(N3CCC[C@@H](c4ccccc4F)C3)c2cc1OC [Cpd 67] — 8.3-fold lower, 7.01 nM
- CCN(C)c1cccc2c1cnn2-c1cnnc2cc(OC)c(OC)cc12 [Cpd 72] — within 1.5-fold, 44 nM
- COc1cc2nncc(-n3ncc4c(N5CCCC5)cccc43)c2cc1OC [Cpd 73, 6,7-dimethoxy-4-(4-pyrrolidin-1-yl-1H-indazol-1-yl)cinnoline] — 1.6-fold higher, 96.1 nM
- COc1cc2nncc(-c3ccc4c(c3)N(C)C(=O)C4(C)C)c2cc1OC [Cpd 76] — 3.1-fold lower, 18.7 nM
- COc1ccc(CNC2CCN(c3cnnc4cc(OC)c(OC)cc34)CC2)cc1 [Cpd 78, 1-(6,7-dimethoxycinnolin-4-yl)-N-(4-methoxybenzyl)piperidin-4-amine] — 24-fold higher, 1390 nM
- COc1cc2nncc(N3CCC(N4CCCC4=O)CC3)c2cc1OC [Cpd 85] — 4.9-fold higher, 286 nM
- COc1ccc(N2CCC=C(c3cnnc4cc(OC)c(OC)cc34)C2)cc1 [Cpd 101] — 9-fold lower, 6.51 nM
- COc1cc2nncc(-n3ncc4c(N5CCN(C(C)=O)CC5)cccc43)c2cc1OC [Cpd 106] — 3.6-fold lower, 16 nM
- COc1cc2nncc(N3CCO[C@@H](c4ccc(C)cc4F)C3)c2cc1OC [Cpd 110] — 20-fold lower, 2.86 nM
- COc1ccc2cc([C@@H]3CN(c4cnnc5cc(OC)c(OC)cc45)CCN3)ccc2c1 [Cpd 111] — 5.7-fold lower, 10.3 nM
- COc1cc2nncc(-n3ncc4c(Br)cccc43)c2cc1OC [Cpd 113, 4-(4-bromo-1H-indazol-1-yl)-6,7-dimethoxycinnoline] — 2.6-fold higher, 152 nM

same assay, conditions: Table 4; fluorescein labeled cAMP or cGMP substrate

`COc1ccc(C2CN(c3cnnc4cc(O)c(OC)cc34)CCO2)cc1` (racemic) [compound 127] was tested, and the IC50 was 145 nM.
